Laboratory results reported in patent publication US6884819B1, “Neuropathy remedies” (Teijin Limited, priority 1999, dated 2005).

How the values were obtained:
C57BL mice = test: Toxicity study, single administration into the caudal vein; assay type: in vivo; settings: for Mortality: 0.03, 0.3, 3 mg/kg i.v., mice, 14 days observation; for Body weights: 0.03-3 mg/kg i.v., days 1, 3, 7 and 14 after dosing; for General condition starting on the day after dosing: all dose groups, day after dosing through day 14
Procedure: The test compound solutions were administered into the caudal vein at the rate of about 5 ml per minute. […] In addition, body weights were measured immediately before dosing and on days 1, 3, 7 and 14 after dosing.

Wistar rats = test: Measurement of blood pressure lowering action (blood pressure and heart rate after intravenous injection without anesthesia); assay type: in vivo; set-up: Blood pressure (mmHg, ± standard error): unit not given here; settings: for Blood pressure (mmHg, ± standard error): 0 min. value assigned 100
Procedure: Thirty five, male Wistar rats.
Cannulas were inserted into the left carotid artery for measuring blood pressure, and into the left jugular vein for intravenous injection of the test compounds, respectively. After being housed normally in their cages overnight following surgery, the animals were injected with the test solutions without anesthesia. Blood pressure and heart rate were measured immediately before dosing (0 minutes) and at 5, 30, 60, 120 and 240 minutes after dosing. The blood pressure at 0 minutes for each animals was assigned a value of 100, and measured values of blood pressure at each time were then normalized based on that value.

[1] = test system: Alzheimer's dementia animal model by continuous intraventricular infusion of β protein; test: Step-through passive evasion test in rats with continuous intraventricular infusion of β-amyloid protein (learning and memory ability improvement effect); assay type: in vivo, Wistar rats
Source text: A step-through passive evasive reaction apparatus composed of two chambers separated by a guillotine door, was used for the experimental apparatus. Namely, one of the chambers was a bright chamber composed of clear acrylic boards (floor: 15 cm×25 cm, height: 15 cm) while the other chamber was a dark chamber (of the same size) composed of black acrylic boards. In addition, stainless steel grids having a diameter of 4 mm were provided at intervals of 15 mm on the floor of the dark room, and connected to a shock generator for applying an electric shock. To begin with, after opening the guillotine door and allowing to freely explore the inside of the apparatus for 1 minute, the door was closed, the rat was placed in the bright chamber as an acquisition trial and the door was opened 30 seconds later. The door was closed after all four limbs of the rat entered the dark chamber followed immediately by the application of an electric shock. […] As a retention trial conducted 24 hours after the acquisition trial, the rat was placed in the bright chamber and the amount of time until all four limbs entered the dark chamber after the guillotine door was opened 30 seconds later was measured (step-through latency). […] The learning and memory ability improvement action of test compound A was measured using the evaluation methods of Reference Examples 1 and 2. […]

[2] = 0.03 mg/kg i.v., 5 min. after dosing
[3] = 0.03 mg/kg i.v., 30 min. after dosing
[4] = 0.03 mg/kg i.v., 60 min. after dosing
[5] = 0.03 mg/kg i.v., 2 hr. after dosing
[6] = 0.03 mg/kg i.v., 4 hr. after dosing
[7] = 0.3 mg/kg i.v., 5 min. after dosing
[8] = 0.3 mg/kg i.v., 30 min. after dosing
[9] = 0.3 mg/kg i.v., 60 min. after dosing
[10] = 0.3 mg/kg i.v., 2 hr. after dosing
[11] = 0.3 mg/kg i.v., 4 hr. after dosing
[12] = 3 mg/kg i.v., 5 min. after dosing
[13] = 3 mg/kg i.v., 30 min. after dosing
[14] = 3 mg/kg i.v., 60 min. after dosing
[15] = 3 mg/kg i.v., 2 hr. after dosing
[16] = 3 mg/kg i.v., 4 hr. after dosing

SMILES: COC(=O)CCCCC1=C[C@H]2C[C@@H](O)[C@H](/C=C/[C@H](O)Cc3cccc(C)c3)[C@H]2C1 [Test compound B, (15R)-16-(m-tolyl)-17,18,19,20-tetranorisocarbacycline methyl ester]
- Time until decreased movement disappeared after dosing (C57BL mice; 3 mg/kg dose group, i.v.): ≤ 30 min
- General condition on the day of dosing (C57BL mice; 3 mg/kg dose group, i.v., starting immediately after dosing): decreased movement
- Mortality (C57BL mice): none of the animals died
- Body weights (C57BL mice): no significant fluctuations
- General condition starting on the day after dosing (C57BL mice): no abnormalities observed in any of the groups
- Blood pressure (mmHg, ± standard error) (Wistar rats; [2]): 105.8
- Blood pressure (mmHg, ± standard error) (Wistar rats; [3]): 103.4
- Blood pressure (mmHg, ± standard error) (Wistar rats; [4]): 103.6
- Blood pressure (mmHg, ± standard error) (Wistar rats; [5]): 104.5
- Blood pressure (mmHg, ± standard error) (Wistar rats; [6]): 100.5
- Blood pressure (mmHg, ± standard error) (Wistar rats; [7]): 92.9
- Blood pressure (mmHg, ± standard error) (Wistar rats; [8]): 97.7
- Blood pressure (mmHg, ± standard error) (Wistar rats; [9]): 97.7
- Blood pressure (mmHg, ± standard error) (Wistar rats; [10]): 98.5
- Blood pressure (mmHg, ± standard error) (Wistar rats; [11]): 98.0
- Blood pressure change immediately after dosing (Wistar rats; 3 mg/kg dose group, i.v.): decrease in blood pressure
- Heart rate change immediately after dosing (Wistar rats; 3 mg/kg dose group, i.v.): increase in heart rate
- Time after dosing at which blood pressure and heart rate returned to normal (Wistar rats; 3 mg/kg dose group, i.v.): 30 min
- Blood pressure (mmHg, ± standard error) (Wistar rats; [12]): mild decrease
- Blood pressure (mmHg, ± standard error) (Wistar rats; 3 mg/kg i.v., 5 min. after dosing, listed as Test comp. B): 80.4
- Blood pressure (mmHg, ± standard error) (Wistar rats; [13]): 99.4
- Blood pressure (mmHg, ± standard error) (Wistar rats; [14]): 101.9
- Blood pressure (mmHg, ± standard error) (Wistar rats; [15]): 102.7
- Blood pressure (mmHg, ± standard error) (Wistar rats; [16]): 101.0
- Fluctuations in blood pressure and heart rate (Wistar rats; 0.3 and 0.03 mg/kg dose groups, i.v.): no significant fluctuations
- Effect on the circulatory system (overall conclusion) (Wistar rats; rats, i.v. 0.03-3 mg/kg): extremely mild effect

SMILES: COC(=O)CCCCC1=C[C@H]2C[C@@H](O)[C@H](/C=C/[C@@H](O)Cc3cccc(C)c3)[C@H]2C1 [Comparative Test Compound D, (15S)-16-(m-tolyl)-17,18,19,20-tetranorisocarbacycline methyl ester, reference compound]
- Blood pressure (mmHg, ± standard error) (Wistar rats; [2]): 88.9
- Blood pressure (mmHg, ± standard error) (Wistar rats; [3]): 92.1
- Blood pressure (mmHg, ± standard error) (Wistar rats; [4]): 96.5
- Blood pressure (mmHg, ± standard error) (Wistar rats; [5]): 97.3
- Blood pressure (mmHg, ± standard error) (Wistar rats; [6]): 99.0
- Blood pressure (mmHg, ± standard error) (Wistar rats; [7]): 49.6
- Blood pressure (mmHg, ± standard error) (Wistar rats; [8]): 78.5
- Blood pressure (mmHg, ± standard error) (Wistar rats; [9]): 94.4
- Blood pressure (mmHg, ± standard error) (Wistar rats; [10]): 93.3
- Blood pressure (mmHg, ± standard error) (Wistar rats; [11]): 99.3
- Duration of decreased blood pressure (Wistar rats; 3 mg/kg and 0.3 mg/kg dose groups, i.v.): ≥ 30 min
- Blood pressure (mmHg, ± standard error) (Wistar rats; [12]): 55.0
- Blood pressure (mmHg, ± standard error) (Wistar rats; [13]): 60.0
- Blood pressure (mmHg, ± standard error) (Wistar rats; [14]): 81.1
- Blood pressure (mmHg, ± standard error) (Wistar rats; [15]): 103.8
- Blood pressure (mmHg, ± standard error) (Wistar rats; [16]): 115.4

SMILES: COC(=O)CCCCC1=C[C@H]2C[C@@H](O)[C@H](/C=C/CCc3cccc(C)c3)[C@H]2C1 [Test compound C, 15-deoxy-16-(m-tolyl)-17,18,19,20-tetranorisocarbacycline methyl ester]
- Mortality (C57BL mice): none of the animals died
- Body weights (C57BL mice): no significant fluctuations
- General condition on the day of dosing (C57BL mice; all dose groups (0.03, 0.3, 3 mg/kg i.v.)): no abnormalities observed in any of the groups
- General condition starting on the day after dosing (C57BL mice): no abnormalities observed in any of the groups

SMILES: Cc1cccc(C[C@@H](O)/C=C/[C@H]2[C@H](O)CC3C=C(CCCCC(=O)O)C[C@@H]32)c1 (stereo partly drawn) [Test compound A, (15R)-16-(m-tolyl)-17,18,19,20-tetranorisocarbacycline]
- Time until moved to dark chamber during retention trial Mean ± standard error ([1]; β-amyloid protein (1-42) 300 pmol/day + test compound 1.2 fmol/day, intraventricular osmotic pump, max observation 300 sec): 265.7 ± 32.6 (n = 6) sec.
- Learning and memory ability improvement action ([1]; β-amyloid protein (1-42) infused rats, overall conclusion): improved learning and memory ability
